Experimental findings from patent US11999716B2, “WDR5 inhibitors and modulators” (priority 2018, dated 2024) are described below.

This assay relates to MV4:11 human cancer cell lines. Nature of the assay: Cellular viability / anti-proliferative activity, CellTiter-Glo, 5 day protocol. Format: cell-based. Particulars: Homo sapiens, MV4-11, 120 h, MV4:11 cells; 5 day incubation; CellTiter-Glo; mean of minimum two replicates; read-out: GI50 on cellular proliferation of MV4:11 human cancer cell lines. Put shortly:
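Cells seeded at 200 per well (7200 cells/mL) with compound in 2-fold serial dilutions from 30 μM top (22 points), 0.3% DMSO final. Viability read by CellTiter-Glo luminescence after 5 days; GI50 from sigmoidal dose-response fit, mean of at least two replicates.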
(Cellular ATP, detected with luciferase, serves as a proxy for viable cell number.)
Take `Cc1nccn1Cc1cc2c(c(-c3cn(C)nc3C(F)(F)F)c1)CCN(c1ccccc1OC(C)C)C2=O` [Example 256, 2-(2-Isopropoxyphenyl)-7-((2-methyl-1H-imidazol-1-yl)methyl)-5-(1-methyl-3-(trifluoromethyl)-1H-pyrazol-4-yl)-3,4-dihydroisoquinolin-1(2H)-one]: the GI50 amounted to 3860 nM.
As for `Cc1ccnc([C@H](C2CC2)N2CCc3c(cc(Cn4ccn(C)c4=N)cc3-c3cccnc3C(F)(F)F)C2=O)c1` [Example 36, (S)-2-(Cyclopropyl(4-methylpyridin-2-yl)methyl)-7-((2-imino-3-methyl-2,3-dihydro-1H-imidazol-1-yl)methyl)-5-(2-(trifluoromethyl)pyridin-3-yl)-3,4-dihydroisoquinolin-1(2H)-one], the GI50 amounted to 201 nM.
Turning to `COc1ccnc(CN2CCc3c(cc(Cn4ccoc4=N)cc3-c3cn(C)nc3C(F)(F)F)C2=O)c1` [Example 84, 7-((2-Iminooxazol-3(2H)-yl)methyl)-2-((4-methoxypyridin-2-yl)methyl)-5-(1-methyl-3-(trifluoromethyl)-1H-pyrazol-4-yl)-3,4-dihydroisoquinolin-1(2H)-one], the GI50 was less than 50 nM.
As for `Cc1nccn1Cc1cc2c(c(-c3cn(C)nc3C(F)(F)F)c1)CCN(c1ccc(F)cc1OCC1CC1)C2=O` [Example 253, 2-(2-(Cyclopropylmethoxy)-4-fluorophenyl)-7-((2-methyl-1H-imidazol-1-yl)methyl)-5-(1-methyl-3-(trifluoromethyl)-1H-pyrazol-4-yl)-3,4-dihydroisoquinolin-1(2H)-one], the GI50 was 2090 nM.
Consider `CCn1cc(-c2cc(Cn3cnc(C)c3C)cc3c2CCN([C@@H](C)c2cc(OC)ccn2)C3=O)c(C(F)(F)F)n1` [Example 178, (S)-7-((4,5-Dimethyl-1H-imidazol-1-yl)methyl)-5-(1-ethyl-3-(trifluoromethyl)-1H-pyrazol-4-yl)-2-(1-(4-methoxypyridin-2-yl)ethyl)-3,4-dihydroisoquinolin-1(2H)-one], for which the GI50 amounted to 152 nM.
Turning to `COc1cc(CN2CCCc3c(cc(Cn4ccn(C)c4=N)cc3-c3ccc(F)cc3C)C2=O)cc(OC)c1` [Example 140, 2-(3,5-Dimethoxybenzyl)-6-(4-fluoro-2-methylphenyl)-8-((2-imino-3-methyl-2,3-dihydro-1H-imidazol-1-yl)methyl)-2,3,4,5-tetrahydro-1H-benzo[c]azepin-1-one], the GI50 amounted to 200 nM.
In the case of `Cc1nccn1Cc1cc2c(c(-c3cn(C)nc3C(F)(F)F)c1)CCN(Cc1cccc(Br)c1)C2=O` [Example 207, 2-(3-Bromobenzyl)-7-((2-methyl-1H-imidazol-1-yl)methyl)-5-(1-methyl-3-(trifluoromethyl)-1H-pyrazol-4-yl)-3,4-dihydroisoquinolin-1(2H)-one] it was 75 nM; in that of `C=Cc1cccc(CN2CCc3c(cc(Cn4ccnc4C)cc3-c3cn(C)nc3C(F)(F)F)C2=O)c1` [Example 235, 7-((2-Methyl-1H-imidazol-1-yl)methyl)-5-(1-methyl-3-(trifluoromethyl)-1H-pyrazol-4-yl)-2-(3-vinylbenzyl)-3,4-dihydroisoquinolin-1(2H)-one], 199 nM; in that of `COc1ccnc(CN2CCc3c(cc(CN4CCOC4=N)cc3-c3cn(C)nc3C(F)(F)F)C2=O)c1` [Example 83, 7-((2-Iminooxazolidin-3-yl)methyl)-2-((4-methoxypyridin-2-yl)methyl)-5-(1-methyl-3-(trifluoromethyl)-1H-pyrazol-4-yl)-3,4-dihydroisoquinolin-1(2H)-one], less than 50 nM.
In the case of `COc1ccnc([C@H](C)N2CCc3c(cc(Cn4ccnc4C)cc3-c3cccnc3C)C2=O)c1` [Example 202, (S)-2-(1-(4-Methoxypyridin-2-yl)ethyl)-7-((2-methyl-1H-imidazol-1-yl)methyl)-5-(2-methylpyridin-3-yl)-3,4-dihydroisoquinolin-1(2H)-one] it was 230 nM; in that of `COc1ccnc(CN2Cc3c(cc(Cn4ccn(C)c4=N)cc3-c3cccnc3C)C2=O)c1` [Example 139, 6-((2-Imino-3-methyl-2,3-dihydro-1H-imidazol-1-yl)methyl)-2-((4-methoxypyridin-2-yl)methyl)-4-(2-methylpyridin-3-yl)isoindolin-1-one], more than 938 nM; in that of `COc1cc(CN2CCc3c(cc(Cn4ccn(C)c4=N)cc3-c3cn(C)nc3C(F)(F)F)C2=O)cc(OC)c1` [Example 39, 2-(3,5-Dimethoxybenzyl)-7-((2-imino-3-methyl-2,3-dihydro-1H-imidazol-1-yl)methyl)-5-(1-methyl-3-(trifluoromethyl)-1H-pyrazol-4-yl)-3,4-dihydroisoquinolin-1(2H)-one], less than 50 nM.
Take `CCn1cc(CN2CCc3c(cc(Cn4ccoc4=N)cc3-c3cn(CC)nc3C(F)(F)F)C2=O)nn1` [Example 96, 2-((1-Ethyl-1H-1,2,3-triazol-4-yl)methyl)-5-(1-ethyl-3-(trifluoromethyl)-1H-pyrazol-4-yl)-7-((2-iminooxazol-3(2H)-yl)methyl)-3,4-dihydroisoquinolin-1(2H)-one]: the GI50 was less than 50 nM.
As for `CCn1cc(-c2cc(Cn3ccoc3=N)cc3c2CCN(Cc2cc(OC)ccn2)C3=O)c(C)n1` [Example 90, 5-(1-Ethyl-3-methyl-1H-pyrazol-4-yl)-7-((2-iminooxazol-3(2H)-yl)methyl)-2-((4-methoxypyridin-2-yl)methyl)-3,4-dihydroisoquinolin-1(2H)-one], the figure is 209 nM; as for `COc1ccnc([C@H](C)N2CCc3c(cc(Cn4ccnc4C)cc3-c3ccc(F)cc3C)C2=O)c1` [Example 168, (S)-5-(4-Fluoro-2-methylphenyl)-2-(1-(4-methoxypyridin-2-yl)ethyl)-7-((2-methyl-1H-imidazol-1-yl)methyl)-3,4-dihydroisoquinolin-1(2H)-one], less than 50 nM; as for `CCn1cc(-c2cc(Cn3ccn(C4CC4)c3=N)cc3c2CCN(Cc2cc(OC)ccn2)C3=O)c(C(F)(F)F)n1` [Example 58, 7-((3-Cyclopropyl-2-imino-2,3-dihydro-1H-imidazol-1-yl)methyl)-5-(1-ethyl-3-(trifluoromethyl)-1H-pyrazol-4-yl)-2-((4-methoxypyridin-2-yl)methyl)-3,4-dihydroisoquinolin-1(2H)-one], 54 nM.
As for `Cc1nccn1Cc1cc2c(c(-c3cn(C)nc3C(F)(F)F)c1)CCN(Cc1ccc3c(c1)OCO3)C2=O` [Example 170, 2-(Benzo[d][1,3]dioxol-5-ylmethyl)-7-((2-methyl-1H-imidazol-1-yl)methyl)-5-(1-methyl-3-(trifluoromethyl)-1H-pyrazol-4-yl)-3,4-dihydroisoquinolin-1(2H)-one], the figure is 835 nM; as for `CCc1cccc(CN2CCc3c(cc(Cn4ccnc4C)cc3-c3cn(C)nc3C(F)(F)F)C2=O)c1` [Example 210, 2-(3-Ethylbenzyl)-7-((2-methyl-1H-imidazol-1-yl)methyl)-5-(1-methyl-3-(trifluoromethyl)-1H-pyrazol-4-yl)-3,4-dihydroisoquinolin-1(2H)-one], 148 nM.
For `CCn1cc(-c2cc(Cn3ccnc3)cc3c2CCN([C@@H](C)c2cc(OC)ccn2)C3=O)c(C(F)(F)F)n1` [Example 160, (S)-7-((1H-Imidazol-1-yl)methyl)-5-(1-ethyl-3-(trifluoromethyl)-1H-pyrazol-4-yl)-2-(1-(4-methoxypyridin-2-yl)ethyl)-3,4-dihydroisoquinolin-1(2H)-one], the GI50 is less than 50 nM.
As for `COc1ccnc(CN2CCc3c(cc(Cn4ccnc4N)cc3-c3cn(C)nc3C(F)(F)F)C2=O)c1` [Example 65, 7-((2-Amino-1H-imidazol-1-yl)methyl)-2-((4-methoxypyridin-2-yl)methyl)-5-(1-methyl-3-(trifluoromethyl)-1H-pyrazol-4-yl)-3,4-dihydroisoquinolin-1(2H)-one], the figure is less than 50 nM; as for `COc1cc(CN2CCc3c(cc(CNC(=N)C4CC4)cc3-c3ccc(F)cc3C)C2=O)cc(OC)c1` [Example 118, N-((2-(3,5-Dimethoxybenzyl)-5-(4-fluoro-2-methylphenyl)-1-oxo-1,2,3,4-tetrahydroisoquinolin-7-yl)methyl)cyclopropanecarboximidamide], 159 nM.
Take `Cc1ccnc(CN2CCc3c(cc(CN4CCCC4=N)cc3-c3cn(C)nc3C(F)(F)F)C2=O)c1` [Example 112, 7-((2-Iminopyrrolidin-1-yl)methyl)-5-(1-methyl-3-(trifluoromethyl)-1H-pyrazol-4-yl)-2-((4-methylpyridin-2-yl)methyl)-3,4-dihydroisoquinolin-1(2H)-one]: the GI50 turned out to be 160 nM.
`Cc1cc([C@H](C)N2CCc3c(cc(Cn4ccn(C)c4=N)cc3-c3cn(C)nc3C(F)(F)F)C2=O)ccc1F` [Example 79, (S)-2-(1-(4-Fluoro-3-methylphenyl)ethyl)-7-((2-imino-3-methyl-2,3-dihydro-1H-imidazol-1-yl)methyl)-5-(1-methyl-3-(trifluoromethyl)-1H-pyrazol-4-yl)-3,4-dihydroisoquinolin-1(2H)-one]: the GI50 is less than 50 nM.
In the case of `CCn1cc(-c2cc(Cn3ccnc3C(C)C)cc3c2CCN([C@@H](C)c2cc(OC)ccn2)C3=O)c(C(F)(F)F)n1` [Example 162, (S)-5-(1-Ethyl-3-(trifluoromethyl)-1H-pyrazol-4-yl)-7-((2-isopropyl-1H-imidazol-1-yl)methyl)-2-(1-(4-methoxypyridin-2-yl)ethyl)-3,4-dihydroisoquinolin-1(2H)-one], the GI50 is 13400 nM.
In the case of `COc1cc(CN2CCc3c(cc(Cn4cnn(C)c4=N)cc3-c3ncc(F)cc3C)C2=O)cc(OC)c1` [Example 124, 2-(3,5-Dimethoxybenzyl)-5-(5-fluoro-3-methylpyridin-2-yl)-7-((5-imino-1-methyl-1,5-dihydro-4H-1,2,4-triazol-4-yl)methyl)-3,4-dihydroisoquinolin-1(2H)-one] it was 935 nM; in that of `COc1cc(CN2CCc3c(OCC4CC4)cc(Cn4ccn(C)c4=N)cc3C2=O)cc(OC)c1` [Example 75, 5-(Cyclopropylmethoxy)-2-(3,5-dimethoxybenzyl)-7-((2-imino-3-methyl-2,3-dihydro-1H-imidazol-1-yl)methyl)-3,4-dihydroisoquinolin-1(2H)-one], more than 938 nM.
